For orientation: Ki means the dissociation constant of the complex between target and ligand, obtained from inhibition or displacement. The IC50 is the concentration that inhibits the measured activity by half.

The record followed here is patent US20090325959A1 (priority 2008, published 2009).

Like-named read-outs stand apart in the source and are kept apart here.

Experiment [1] addresses T1, ROCK1 (Homo sapiens, UniProt Q13464).
T1 construct: purchased Upstate/Chemicon 14-601
Nature of the experiment: Rho kinase inhibition assay (IMAP fluorescence polarization), ROCK1.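 Further: kinase reaction run 60 min at room temperature, then phosphorylated substrate captured on IMAP beads for 30 min, with fluorescence polarization read in mP.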 It counts as biochemical.
Experimental: Following the pre-incubation, 10 μM ATP was added to initiate the reaction. After 60 minutes at room temperature, Molecular Devices IMAP™ binding solution was added to bind phosphorylated substrate. After 30 minutes of incubation in the presence of the IMAP™ beads, the fluorescence polarization was read and the ratio was reported as mP. IC50 values for compounds and EC50 values for ATP were calculated using the Prism software from Graphpad.

Experiment [2] deals with ova-sensitized, ova-challenged mice. Nature of the experiment: Prevention of airway hyperreactivity (Penh, methacholine) in mouse ovalbumin sensitization model. It counts as in vivo.
The subject of experiment [3] is human monocytes. Kind of experiment: Human monocyte cytokine secretion assay (LPS-stimulated). Format: cell-based. The following applies: for IC50: Monocyte, LPS-stimulated human monocytes.
Experimental: Peripheral blood from healthy human volunteers was collected and the monocytes isolated via Ficoll-paque density centrifugation. […] The cells were allowed to pre-incubate with test compound at the indicated concentration for 30 minutes (37° C., 5% CO2, humidified air); after which the supernatant was removed and media containing compound and 1 ng/mL LPS was added. Cells were allowed to incubate with compounds and LPS for 4 hours at 37° C. after which the supernatant was removed and stored at −80° C. Cytokine concentrations in the supernatant were determined using commercially available Bio-Rad Bio-plex™ kits according the manufacturer's instructions.
The subject of experiment [4] is LPS-challenged mice. Kind of experiment: LPS-induced neutrophilia and cytokine production assay. It counts as in vivo, mouse. The following applies: intratracheal administration; FIG. 11B.
Experimental: Male BALB/c mice, approximately 19 to 21 grams, were ordered from Charles River Laboratories (Raleigh, N.C.). All animals were challenged with aerosolized LPS (10 μg/ml) for 25 minutes on study day 0. LPS aerosol was generated using an Aerogen Aeroneb nebulizer and controller providing a flow of 400 μl/min and a particle size of 2-4 μm MMAD. Rolipram was administered i.p at 20 mg/kg. […] Four hours following LPS challenge, BALF was collected using a total of 3 ml of 0.9% sodium chloride containing 10% fetal calf serum. Total cell counts were determined using the Coulter Counter. For differential evaluations, BALF was centrifuged and cytospin slides prepared and stained with Hema3 stain. Manual leukocyte counts were then completed on 200 cells. The final concentration of individual leukocyte cell types per ml of BALF was determined by multiplication of the relative percentage of individual leukocytes with the total amount of cells/ml of BALF fluid. The concentration of IL-1β in the BALF samples was determined using commercially available Bio-plex kits (Bio-Rad). The analysis of cytokine levels was measured using the Bio-Plex 200 (Bio-Rad) system according to the manufacturer's instructions.
Experiment [5] concerns A-10 rat thoracic aorta cells. Kind of experiment: PDGF-stimulated smooth muscle cell proliferation assay (BrdU incorporation).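 Further: cells kept in serum-free medium, BrdU allowed to incorporate for 24 h, then incorporated label detected fluorometrically with an anti-BrdU antibody.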 Format: cell-based. The following applies: A-10 cells, 10 ng/mL PDGF, BrdU incorporation, percent of total challenge-stimulated proliferation. In general terms: Incorporation of labelled thymidine or its analogues reports DNA synthesis.
Experiment [6] concerns the target T2, Akt3 human enzyme (Homo sapiens, UniProt Q9Y243).
T2 construct: purchased Upstate Chemicon 14-502
Kind of experiment: Akt3 inhibition assay (IMAP FP).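 Further: kinase reaction run 60 min at room temperature after 30 µM ATP start, phosphorylated substrate captured on IMAP beads and read as fluorescence polarization (mP).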 Format: biochemical.

Experiment [7] concerns the target T3, ERK1 (Homo sapiens, UniProt P27361).
T3 construct: purchased Upstate, Millipore Bioscience Division (KinaseProfiler service)
Kind of experiment: Kinase panel screen (KinaseProfiler), ERK1. It counts as biochemical. The protocol:
(§1) Compounds of Formulae I and II were examined for activity against a selected panel of kinases using the KinaseProfiler™ enzyme profiling services (Upstate, Millipore Bioscience Division). Percent kinase activity at 10 μM and 1 μM test compound and 10 μM ATP was determined against 40 wild-type recombinant human kinases according to Upstate's standard protocol: ASK1, BTK, CSK, c-RAF, GCK, GSK3β, IKKα, IKKβ, IRAK1, IRAK4, JNK1α1, JNK2α2, JNK3, ERK1, ERK2, MAPKAP-K2, MAPKAP-K3, MEK1, MKK4, MKK6, MKK7β, Mnk2, MSK1, PAK3, PDK1, PRAK, ROCK1, Rsk2, SAPK2a, SAPK2b, SAPK3, SAPK4, SRPK1, SRPK2, Syk, TAK1, TBK1, PI3-Kβ, PI3-Kγ, PI3-Kδ.

The target in experiment [8] is T4, ERK2 (Homo sapiens, UniProt P28482).
T4 construct: purchased Upstate, Millipore Bioscience Division (KinaseProfiler service)
Kind of experiment: Kinase panel screen (KinaseProfiler), ERK2. Format: biochemical. The protocol:
as §1

Experiment [9] concerns the target T5, Mnk2 (Homo sapiens, UniProt Q9HBH9).
T5 construct: purchased Upstate, Millipore Bioscience Division (KinaseProfiler service)
Nature of the experiment: Kinase panel screen (KinaseProfiler), Mnk2. The following applies: 10 μM ATP. It counts as biochemical. The method, then: as §1

The target in experiment [10] is T6, GCK (Homo sapiens, UniProt Q12851).
T6 construct: purchased Upstate, Millipore Bioscience Division (KinaseProfiler service)
T6 sequence (Q12851 1-820): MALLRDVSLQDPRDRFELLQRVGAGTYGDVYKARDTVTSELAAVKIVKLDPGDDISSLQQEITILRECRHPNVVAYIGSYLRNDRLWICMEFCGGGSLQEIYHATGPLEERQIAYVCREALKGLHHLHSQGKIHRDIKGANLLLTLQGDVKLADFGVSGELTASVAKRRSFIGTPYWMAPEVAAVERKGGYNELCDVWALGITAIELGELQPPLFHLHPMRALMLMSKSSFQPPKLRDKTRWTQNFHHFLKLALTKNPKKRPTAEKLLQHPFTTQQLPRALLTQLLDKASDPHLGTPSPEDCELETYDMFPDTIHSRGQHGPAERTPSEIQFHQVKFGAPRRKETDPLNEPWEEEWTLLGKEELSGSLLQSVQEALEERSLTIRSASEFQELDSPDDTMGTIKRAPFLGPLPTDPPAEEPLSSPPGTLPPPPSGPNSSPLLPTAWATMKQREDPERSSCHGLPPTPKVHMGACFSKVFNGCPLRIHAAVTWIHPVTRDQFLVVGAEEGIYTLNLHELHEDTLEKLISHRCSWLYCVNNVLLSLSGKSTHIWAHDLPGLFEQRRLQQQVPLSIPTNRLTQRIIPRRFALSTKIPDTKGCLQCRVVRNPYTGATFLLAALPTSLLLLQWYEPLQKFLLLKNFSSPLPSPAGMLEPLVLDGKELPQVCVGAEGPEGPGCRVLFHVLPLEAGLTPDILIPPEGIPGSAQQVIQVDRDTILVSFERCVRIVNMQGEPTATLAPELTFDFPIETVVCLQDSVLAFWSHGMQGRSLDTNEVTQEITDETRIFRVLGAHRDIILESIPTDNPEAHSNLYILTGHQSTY
Nature of the experiment: Kinase panel screen (KinaseProfiler), GCK. It counts as biochemical. The method, then: as §1

T3 sequence (P27361 whole entry): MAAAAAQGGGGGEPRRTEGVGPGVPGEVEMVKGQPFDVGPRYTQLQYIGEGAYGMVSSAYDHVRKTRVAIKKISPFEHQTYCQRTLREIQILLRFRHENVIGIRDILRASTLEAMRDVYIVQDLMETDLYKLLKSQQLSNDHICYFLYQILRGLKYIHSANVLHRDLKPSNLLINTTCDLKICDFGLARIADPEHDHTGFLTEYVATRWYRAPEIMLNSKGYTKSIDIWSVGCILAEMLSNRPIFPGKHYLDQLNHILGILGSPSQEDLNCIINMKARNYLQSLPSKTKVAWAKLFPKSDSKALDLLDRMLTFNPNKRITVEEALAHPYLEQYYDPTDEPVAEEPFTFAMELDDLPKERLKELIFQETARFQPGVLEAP
T4 sequence (P28482 whole entry): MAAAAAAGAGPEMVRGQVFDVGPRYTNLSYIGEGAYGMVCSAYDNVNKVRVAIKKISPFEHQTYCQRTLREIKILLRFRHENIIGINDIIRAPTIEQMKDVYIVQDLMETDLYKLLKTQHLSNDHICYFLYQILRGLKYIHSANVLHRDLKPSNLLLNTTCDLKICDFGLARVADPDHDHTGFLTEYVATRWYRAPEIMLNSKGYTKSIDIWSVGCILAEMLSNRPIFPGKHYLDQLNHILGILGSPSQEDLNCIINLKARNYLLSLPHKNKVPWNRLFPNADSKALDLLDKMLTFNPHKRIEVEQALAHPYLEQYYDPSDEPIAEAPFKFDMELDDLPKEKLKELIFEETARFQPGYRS
T5 sequence (Q9HBH9 whole entry): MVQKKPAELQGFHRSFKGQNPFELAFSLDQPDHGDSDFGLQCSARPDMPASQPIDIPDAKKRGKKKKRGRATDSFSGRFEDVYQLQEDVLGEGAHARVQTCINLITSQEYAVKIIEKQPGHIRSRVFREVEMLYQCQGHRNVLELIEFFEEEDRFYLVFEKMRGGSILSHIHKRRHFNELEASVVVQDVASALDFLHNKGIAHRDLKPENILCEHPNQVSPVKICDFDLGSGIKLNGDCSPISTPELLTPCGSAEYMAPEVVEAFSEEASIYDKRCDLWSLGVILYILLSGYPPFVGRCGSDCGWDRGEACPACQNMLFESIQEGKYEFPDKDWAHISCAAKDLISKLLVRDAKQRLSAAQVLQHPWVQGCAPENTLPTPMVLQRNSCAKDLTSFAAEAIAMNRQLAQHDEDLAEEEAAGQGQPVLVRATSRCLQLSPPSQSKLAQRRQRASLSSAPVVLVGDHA
T1 sequence (Q13464 17-535 limits assumed): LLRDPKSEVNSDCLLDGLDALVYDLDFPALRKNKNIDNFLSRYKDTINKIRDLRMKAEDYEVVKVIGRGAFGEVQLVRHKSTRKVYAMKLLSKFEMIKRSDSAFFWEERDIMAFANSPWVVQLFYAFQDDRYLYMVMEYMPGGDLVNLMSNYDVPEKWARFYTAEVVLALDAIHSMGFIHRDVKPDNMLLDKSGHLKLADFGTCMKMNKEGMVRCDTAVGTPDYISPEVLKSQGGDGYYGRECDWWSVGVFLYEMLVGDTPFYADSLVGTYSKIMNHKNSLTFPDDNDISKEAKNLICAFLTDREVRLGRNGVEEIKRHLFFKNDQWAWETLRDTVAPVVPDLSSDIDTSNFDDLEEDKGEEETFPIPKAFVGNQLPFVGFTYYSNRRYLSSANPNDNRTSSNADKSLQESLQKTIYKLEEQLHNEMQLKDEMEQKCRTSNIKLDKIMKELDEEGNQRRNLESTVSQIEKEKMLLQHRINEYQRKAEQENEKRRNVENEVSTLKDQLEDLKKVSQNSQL
T2 sequence (Q9Y243 whole entry): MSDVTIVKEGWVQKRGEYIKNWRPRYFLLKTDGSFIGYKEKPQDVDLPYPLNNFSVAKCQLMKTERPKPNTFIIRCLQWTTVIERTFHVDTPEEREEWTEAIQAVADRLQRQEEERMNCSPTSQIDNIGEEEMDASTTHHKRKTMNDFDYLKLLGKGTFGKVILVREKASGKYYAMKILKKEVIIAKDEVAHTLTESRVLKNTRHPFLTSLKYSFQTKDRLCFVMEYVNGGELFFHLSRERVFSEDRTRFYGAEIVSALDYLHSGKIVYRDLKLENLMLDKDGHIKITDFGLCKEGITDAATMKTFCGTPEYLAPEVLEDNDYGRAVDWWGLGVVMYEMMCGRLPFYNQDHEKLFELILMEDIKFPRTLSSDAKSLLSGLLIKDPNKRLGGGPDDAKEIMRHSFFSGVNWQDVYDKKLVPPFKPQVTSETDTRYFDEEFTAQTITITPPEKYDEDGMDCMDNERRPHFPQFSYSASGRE

For the compound `NC(=O)Cn1ccc2cc(CN3CC[C@@H](Nc4cccc5cnccc45)C3)ccc21` [Compound 2.059, (R)-2-(5-((3-(isoquinolin-5-ylamino)pyrrolidin-1-yl)methyl)-1H-indol-1-yl)acetamide], the Ki in experiment [1] (Avg, 10 μM ATP) was 3.9 nM; in experiment [1] (average Ki), 3.9 nM; in [6] (30 μM ATP, Ki=IC50/(1+([ATP Challenge]/EC50 ATP)), read-out: Akt3 Ki, Avg) it was 120 nM; in experiment [6] (average Ki, read-out: Akt3 Ki), 120 nM. Also, the “log10AUC (Penh)” value in [2] (0.5 μmol/kg/intratracheal, days 27 to 31) is 1.9979. In addition, the airway hyperreactivity entry in [2] (intratracheal once a day during days 27 to 31) is on record as “prevention of airway hyperreactivity”. Moreover, the IC50 in experiment [3] (read-out: IC50 for inhibition of IL-1β secretion) was determined as 169 ± 13 nM; in [3] (read-out: IC50 for inhibition of IL-9 secretion), 269 ± 28.1 nM; in experiment [3] (read-out: IC50 for inhibition of TNF-α secretion), 207 ± 17 nM. Also, the “IL-6, %” value in [3] (average percent of stimulated IL-6 secretion from human monocytes at 10 μM of test compound) came to 0.0%. Further, the “IL-1β levels in BALF from LPS-challenged mice” value in experiment [4] is “reduction”. Moreover, the “Percent of PDGF Induced Proliferation at 1 μM Avg” value in [5] (1 μM test compound) came out at 75.0%. The “Percent of PDGF Induced Proliferation at 10 μM Avg” value in experiment [5] (10 μM test compound) amounted to 25.5%. The activity at 1 µM was determined as 37% in [7] (1 μM test compound, 10 μM ATP, read-out: ERK1 Percent inhibition, 1 μM) and 49% in [9] (1 μM test compound, read-out: Mnk2 Percent inhibition, 1 μM). Further, the inhibition at 1 µM in experiment [7] (1 μM, read-out: ERK1 inhibited) was around 50%; in [8] (1 μM, read-out: ERK2 inhibited), around 50%. In addition, the activity at 10 µM in experiment [7] (10 μM test compound, 10 μM ATP, read-out: ERK1 Percent inhibition, 10 μM) stood at 4%; in experiment [9] (10 μM test compound, read-out: Mnk2 Percent inhibition, 10 μM), 12%; in experiment [10] (10 μM test compound, 10 μM ATP, read-out: GCK Percent inhibition, 10 μM), 34%. For the same compound, in experiment [8], the “ERK2 Percent inhibition, 1 μM” value is recorded as 56%. For the same compound, in experiment [8], the “ERK2 Percent inhibition, 10 μM” value stood at 12%. Besides, the “GCK Percent inhibition, 1 μM” value in experiment [10] is 75%.
